Assay results: ChEMBL document CHEMBL3774368, “1,2,4-Triazolyl octahydropyrrolo[2,3-b]pyrroles: A new series of potent and selective dopamine D3 receptor antagonists” (Bioorg Med Chem, 2016)
The source made the active and inactive calls. The rule behind the calls is not given here.

Columns and labels:
[1] = Solubility of compound; assay type: physicochemical
[2] = molecular target: D(1A) dopamine receptor (Homo sapiens) (UniProt P21728); assay: Binding affinity to dopamine D1 receptor (unknown origin)
[3] = molecular target: T1, D(4) dopamine receptor (Homo sapiens) (UniProt P21917); assay: Binding affinity to dopamine D4 receptor (unknown origin)
T1 sequence (whole entry): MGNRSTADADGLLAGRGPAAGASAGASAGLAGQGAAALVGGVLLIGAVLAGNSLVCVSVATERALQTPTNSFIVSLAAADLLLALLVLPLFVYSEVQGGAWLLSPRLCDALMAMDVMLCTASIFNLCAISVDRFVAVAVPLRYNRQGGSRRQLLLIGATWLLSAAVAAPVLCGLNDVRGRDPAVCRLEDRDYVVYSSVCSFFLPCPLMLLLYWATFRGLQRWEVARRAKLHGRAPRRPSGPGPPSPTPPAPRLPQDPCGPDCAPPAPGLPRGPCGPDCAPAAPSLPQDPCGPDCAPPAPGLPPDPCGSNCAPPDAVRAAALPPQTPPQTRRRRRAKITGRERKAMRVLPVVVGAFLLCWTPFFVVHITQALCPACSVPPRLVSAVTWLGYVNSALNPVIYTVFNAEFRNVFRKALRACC

[4] = Clearance in portal vein cannulated Sprague-Dawley rat blood; details: whole blood
[5] = Fraction unbound in Sprague-Dawley rat blood
Cytochrome P450 2C19 = Cytochrome P450 2C19 (Homo sapiens, UniProt P33261); assay: Inhibition of recombinant human CYP2C19 expressed in baculosomes preincubated for 10 mins followed by cofactor addition measured every minute for 10 mins using 3-butyryl-7-methoxycoumarin as substrate by CYPEX assay
[6] = Fraction absorbed in portal vein cannulated Sprague-Dawley rat model; details: in vivo
D(3) dopamine receptor = D(3) dopamine receptor (Homo sapiens, UniProt P35462); assay: Displacement of [3H]-spiperone from human dopamine D3 receptor expressed in CHO-K1 cell membranes after 90 mins by liquid scintillation counter method
[7] = molecular target: Muscarinic acetylcholine receptor M3 (Homo sapiens, UniProt P20309); assay: Antagonist activity at recombinant human muscarinic M3 receptor expressed in CHO-K1 cells assessed as inhibition of acetylcholine induced calcium mobilization preincubated for 10 mins followed by acetylcholine addition measured after 1 hr by fluo-4 AM dye-based FLIPR assay; assay type: functional, cell-based
[8] = Half life in portal vein cannulated Sprague-Dawley rat model; details: in vivo
in vitro [9] = details: human, liver microsomes, CLH
Cytochrome P450 3A4 [10] = molecular target: T2, Cytochrome P450 3A4 (Homo sapiens, UniProt P08684); assay: Inhibition of recombinant human CYP3A4 expressed in baculosomes preincubated for 10 mins followed by cofactor addition measured every minute for 10 mins using diethoxyflourescein as substrate by CYPEX assay
[11] = molecular target: T3, Muscarinic acetylcholine receptor M1 (Homo sapiens, UniProt P11229); assay: Antagonist activity at recombinant human muscarinic M1 receptor expressed in CHO-K1 cells assessed as inhibition of acetylcholine induced calcium mobilization preincubated for 10 mins followed by acetylcholine addition measured after 1 hr by fluo-4 AM dye-based FLIPR assay; assay type: functional, cell-based
T3 sequence (P11229 whole entry): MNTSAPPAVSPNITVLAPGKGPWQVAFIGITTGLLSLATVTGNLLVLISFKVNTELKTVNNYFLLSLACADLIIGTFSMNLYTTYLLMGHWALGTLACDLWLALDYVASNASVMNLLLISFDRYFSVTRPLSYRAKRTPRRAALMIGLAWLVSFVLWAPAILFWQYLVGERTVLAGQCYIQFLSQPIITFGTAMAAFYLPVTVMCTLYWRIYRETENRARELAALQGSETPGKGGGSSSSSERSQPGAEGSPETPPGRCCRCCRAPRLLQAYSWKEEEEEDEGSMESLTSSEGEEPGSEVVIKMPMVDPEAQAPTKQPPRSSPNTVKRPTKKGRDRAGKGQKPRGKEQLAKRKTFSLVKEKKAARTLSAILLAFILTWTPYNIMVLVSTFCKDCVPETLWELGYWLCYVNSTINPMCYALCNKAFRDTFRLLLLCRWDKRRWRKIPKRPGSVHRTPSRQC

[12] = Fraction unbound in Sprague-Dawley rat brain
[13] = Permeability across apical to basolateral side in human Caco2 cells; details: for permeability: Caco-2
Cytochrome P450 2D6 = Cytochrome P450 2D6 (Homo sapiens, UniProt P10635); assay: Inhibition of recombinant human CYP2D6 expressed in baculosomes preincubated for 10 mins followed by cofactor addition measured every minute for 10 mins using 4-methylaminomethyl-7-methoxycoumarin as substrate by CYPEX assay
Cytochrome P450 1A2 = molecular target: T4, Cytochrome P450 1A2 (Homo sapiens, UniProt P05177); assay: Inhibition of recombinant human CYP1A2 expressed in baculosomes preincubated for 10 mins followed by cofactor addition measured every minute for 10 mins using ethoxyresorufin as substrate by CYPEX assay
T4 sequence (P05177 whole entry): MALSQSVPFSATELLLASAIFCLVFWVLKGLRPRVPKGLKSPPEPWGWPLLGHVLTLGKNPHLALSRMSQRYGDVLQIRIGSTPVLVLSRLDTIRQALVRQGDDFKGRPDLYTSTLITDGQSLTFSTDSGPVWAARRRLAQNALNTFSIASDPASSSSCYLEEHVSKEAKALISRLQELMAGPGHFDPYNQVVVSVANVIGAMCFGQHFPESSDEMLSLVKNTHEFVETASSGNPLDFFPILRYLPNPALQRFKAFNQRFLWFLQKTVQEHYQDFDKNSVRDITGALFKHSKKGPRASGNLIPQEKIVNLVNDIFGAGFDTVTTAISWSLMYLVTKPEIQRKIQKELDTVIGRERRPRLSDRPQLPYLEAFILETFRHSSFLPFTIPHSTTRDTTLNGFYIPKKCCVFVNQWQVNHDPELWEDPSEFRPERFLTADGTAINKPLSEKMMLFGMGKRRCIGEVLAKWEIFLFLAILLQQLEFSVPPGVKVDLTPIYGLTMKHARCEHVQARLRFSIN

Cytochrome P450 3A4 [14] = molecular target: T2, Cytochrome P450 3A4; assay: Inhibition of recombinant human CYP3A4 expressed in baculosomes preincubated for 10 mins followed by cofactor addition measured every minute for 10 mins using 7-benzyloxyquinoline as substrate by CYPEX assay
in vitro [15] = details: rat, liver microsomes, CLH
[16] = Volume of distribution at steady state in portal vein cannulated Sprague-Dawley rat model; details: in vivo
in vivo = details: Sprague-Dawley, rat, po
Cytochrome P450 2C9 = Cytochrome P450 2C9 (Homo sapiens, UniProt P11712); assay: Inhibition of recombinant human CYP2C9 expressed in baculosomes preincubated for 10 mins followed by cofactor addition measured every minute for 10 mins using 7-methoxy-4-trifluoromethylcoumarin-3-acetic acid as substrate by CYPEX assay
D(2) dopamine receptor = D(2) dopamine receptor (Homo sapiens, UniProt P14416); assay: Displacement of [3H]-spiperone from human dopamine D2 receptor expressed in CHO-K1 cell membranes after 120 mins by liquid scintillation counter method
Homo sapiens = species: Homo sapiens; assay: Selectivity ratio of IC50 for human ERG to Ki for human dopamine D3 receptor

T2 sequence (P08684 whole entry): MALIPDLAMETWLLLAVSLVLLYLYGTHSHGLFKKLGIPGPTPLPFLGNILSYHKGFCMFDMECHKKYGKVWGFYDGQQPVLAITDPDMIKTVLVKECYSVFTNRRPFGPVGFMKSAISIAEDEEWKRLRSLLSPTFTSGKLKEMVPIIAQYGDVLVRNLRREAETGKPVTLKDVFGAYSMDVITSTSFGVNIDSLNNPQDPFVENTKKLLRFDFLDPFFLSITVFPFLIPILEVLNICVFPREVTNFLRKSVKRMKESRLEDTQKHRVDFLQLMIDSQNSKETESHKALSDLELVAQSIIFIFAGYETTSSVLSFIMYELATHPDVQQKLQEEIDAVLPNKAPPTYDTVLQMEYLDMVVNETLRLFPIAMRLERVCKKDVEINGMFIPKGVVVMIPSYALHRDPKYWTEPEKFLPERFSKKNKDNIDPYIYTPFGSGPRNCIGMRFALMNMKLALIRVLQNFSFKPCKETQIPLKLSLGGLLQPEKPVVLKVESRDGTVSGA
Sequence of Cytochrome P450 2D6 (P10635 whole entry): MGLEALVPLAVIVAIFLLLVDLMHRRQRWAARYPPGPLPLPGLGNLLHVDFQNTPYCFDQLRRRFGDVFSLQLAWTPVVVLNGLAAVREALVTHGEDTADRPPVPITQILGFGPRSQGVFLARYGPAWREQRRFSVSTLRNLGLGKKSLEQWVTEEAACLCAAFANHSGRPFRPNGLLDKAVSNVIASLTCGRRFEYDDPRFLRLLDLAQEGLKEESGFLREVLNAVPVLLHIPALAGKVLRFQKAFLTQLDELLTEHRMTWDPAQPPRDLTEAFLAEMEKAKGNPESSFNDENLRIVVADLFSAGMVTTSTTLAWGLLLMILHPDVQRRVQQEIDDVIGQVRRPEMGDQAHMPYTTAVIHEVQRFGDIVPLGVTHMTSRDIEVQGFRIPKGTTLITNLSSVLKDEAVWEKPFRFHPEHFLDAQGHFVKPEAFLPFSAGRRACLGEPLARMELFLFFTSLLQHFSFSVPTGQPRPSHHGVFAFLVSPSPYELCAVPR
Sequence of Cytochrome P450 2C19 (P33261 whole entry): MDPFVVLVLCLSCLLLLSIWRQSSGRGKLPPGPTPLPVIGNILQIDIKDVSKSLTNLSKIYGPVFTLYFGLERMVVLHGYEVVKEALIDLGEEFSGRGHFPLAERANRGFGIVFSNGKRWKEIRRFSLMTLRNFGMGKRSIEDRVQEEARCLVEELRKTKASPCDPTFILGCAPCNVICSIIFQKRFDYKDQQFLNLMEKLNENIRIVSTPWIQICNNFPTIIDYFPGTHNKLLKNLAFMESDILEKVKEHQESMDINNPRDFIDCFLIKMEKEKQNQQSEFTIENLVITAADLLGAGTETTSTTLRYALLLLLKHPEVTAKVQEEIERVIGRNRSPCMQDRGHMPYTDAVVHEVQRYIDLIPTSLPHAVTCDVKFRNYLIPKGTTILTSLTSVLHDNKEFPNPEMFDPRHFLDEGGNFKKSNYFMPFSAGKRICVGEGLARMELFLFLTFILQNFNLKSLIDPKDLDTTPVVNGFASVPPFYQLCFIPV
Sequence of D(1A) dopamine receptor (Homo sapiens) (P21728 whole entry): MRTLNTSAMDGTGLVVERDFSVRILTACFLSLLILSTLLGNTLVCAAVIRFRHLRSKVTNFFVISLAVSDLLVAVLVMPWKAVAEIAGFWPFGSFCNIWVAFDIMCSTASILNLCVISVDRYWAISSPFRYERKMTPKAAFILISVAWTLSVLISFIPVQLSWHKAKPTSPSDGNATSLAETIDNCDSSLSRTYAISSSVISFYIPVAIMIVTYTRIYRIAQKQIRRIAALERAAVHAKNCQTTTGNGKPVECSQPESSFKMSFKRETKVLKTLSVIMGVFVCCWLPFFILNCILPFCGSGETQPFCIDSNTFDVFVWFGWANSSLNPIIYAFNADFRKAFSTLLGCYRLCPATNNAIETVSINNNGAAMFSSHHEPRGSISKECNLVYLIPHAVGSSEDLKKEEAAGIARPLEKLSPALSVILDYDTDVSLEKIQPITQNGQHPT
Sequence of Cytochrome P450 2C9 (P11712 whole entry): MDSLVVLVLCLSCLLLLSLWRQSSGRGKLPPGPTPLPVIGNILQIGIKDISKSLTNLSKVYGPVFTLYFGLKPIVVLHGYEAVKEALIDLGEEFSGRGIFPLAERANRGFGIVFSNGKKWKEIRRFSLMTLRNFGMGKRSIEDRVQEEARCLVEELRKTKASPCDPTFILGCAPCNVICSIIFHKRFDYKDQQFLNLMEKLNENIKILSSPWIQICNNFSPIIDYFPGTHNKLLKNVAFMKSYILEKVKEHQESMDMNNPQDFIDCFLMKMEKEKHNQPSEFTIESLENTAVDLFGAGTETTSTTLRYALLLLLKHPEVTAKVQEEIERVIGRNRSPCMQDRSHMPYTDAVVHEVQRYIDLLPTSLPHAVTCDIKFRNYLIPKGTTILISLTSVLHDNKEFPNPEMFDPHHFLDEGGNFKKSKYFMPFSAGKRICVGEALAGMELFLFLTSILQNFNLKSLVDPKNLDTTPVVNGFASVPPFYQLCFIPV
Sequence of D(2) dopamine receptor (P14416 whole entry): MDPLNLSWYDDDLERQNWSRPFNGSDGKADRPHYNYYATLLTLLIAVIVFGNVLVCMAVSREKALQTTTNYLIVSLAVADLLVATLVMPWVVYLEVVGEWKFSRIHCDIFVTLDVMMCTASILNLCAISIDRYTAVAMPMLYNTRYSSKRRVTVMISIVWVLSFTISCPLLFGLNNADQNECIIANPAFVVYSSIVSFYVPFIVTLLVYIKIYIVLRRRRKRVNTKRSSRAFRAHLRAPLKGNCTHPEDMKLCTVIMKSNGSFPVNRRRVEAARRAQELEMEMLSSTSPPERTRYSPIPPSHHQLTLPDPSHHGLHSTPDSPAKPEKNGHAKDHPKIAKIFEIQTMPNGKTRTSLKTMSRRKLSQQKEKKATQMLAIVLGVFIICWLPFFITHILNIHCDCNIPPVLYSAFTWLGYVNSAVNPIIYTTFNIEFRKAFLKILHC
Sequence of D(3) dopamine receptor (P35462 whole entry): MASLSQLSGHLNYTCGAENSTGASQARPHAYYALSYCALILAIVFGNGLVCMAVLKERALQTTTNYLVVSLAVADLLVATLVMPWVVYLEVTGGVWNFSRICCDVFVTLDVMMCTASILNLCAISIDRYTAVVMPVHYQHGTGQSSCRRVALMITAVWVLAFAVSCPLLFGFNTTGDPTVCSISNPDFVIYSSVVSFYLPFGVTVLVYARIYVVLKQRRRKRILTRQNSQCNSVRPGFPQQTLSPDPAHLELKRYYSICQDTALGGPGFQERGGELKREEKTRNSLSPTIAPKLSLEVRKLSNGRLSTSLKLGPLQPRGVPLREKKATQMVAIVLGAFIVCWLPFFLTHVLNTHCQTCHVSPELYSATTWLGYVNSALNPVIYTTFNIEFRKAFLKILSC
Sequence of Muscarinic acetylcholine receptor M3 (P20309 whole entry): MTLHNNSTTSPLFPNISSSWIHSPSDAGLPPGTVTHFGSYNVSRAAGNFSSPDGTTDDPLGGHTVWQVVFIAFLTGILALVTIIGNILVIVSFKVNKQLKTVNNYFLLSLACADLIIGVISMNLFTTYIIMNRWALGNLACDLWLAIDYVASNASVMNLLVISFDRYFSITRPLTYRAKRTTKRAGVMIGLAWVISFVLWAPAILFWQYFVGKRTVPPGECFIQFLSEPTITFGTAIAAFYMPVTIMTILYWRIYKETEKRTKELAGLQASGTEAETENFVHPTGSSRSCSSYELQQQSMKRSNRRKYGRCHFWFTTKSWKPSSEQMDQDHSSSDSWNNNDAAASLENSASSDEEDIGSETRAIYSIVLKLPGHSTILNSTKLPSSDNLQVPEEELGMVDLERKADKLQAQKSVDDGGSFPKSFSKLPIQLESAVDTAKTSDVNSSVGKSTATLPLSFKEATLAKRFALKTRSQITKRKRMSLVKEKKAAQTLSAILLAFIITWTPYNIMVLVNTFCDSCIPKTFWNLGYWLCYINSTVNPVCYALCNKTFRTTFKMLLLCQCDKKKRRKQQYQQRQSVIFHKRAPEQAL

SMILES	solubility [1] [µg/mL]	Activity [2]	IC50 (Cytochrome P450 2C19) [nM]	microsomal CLint at 0.5 µM (in vitro [9]) [µL/min/mg]	IC50 (Cytochrome P450 3A4 [10]) [nM]	IC50 (Cytochrome P450 2D6) [nM]	IC50 (Cytochrome P450 1A2) [nM]	IC50 (Cytochrome P450 3A4 [14]) [nM]	microsomal CLint at 0.5 µM (in vitro [15]) [µL/min/mg]	IC50 (Cytochrome P450 2C9) [nM]	further results
Cn1c(SCCCN2CC3CCN(c4ccccc4C(F)(F)F)C3C2)nnc1-c1cccnc1 (stereo in doubt; 52a)	–	inactive	–	–	–	–	–	–	–	–	Activity [3]: inactive
Cn1c(SCCCN2CC3CCN(c4ccccc4)C3C2)nnc1C1CCOCC1 (stereo in doubt; 62a)	> 2000	–	> 17000	26	> 17000	> 17000	> 17000	> 17000	272	> 17000	clearance [4]: 20 mL/min/kg; fraction unbound [5]: 0.31; Fa [6]: 5.5%; Ki (D(3) dopamine receptor): 6.31 nM; Ki [7]: 1450 nM; half-life [8]: 18 min; Ki [11]: 1020 nM; fraction unbound [12]: 0.33; permeability [13]: permeable; Vd [16]: 0.44 L/kg; bioavailability (in vivo): < 1%
Cn1c(SCCCN2CC3CCN(c4ccc(C(F)(F)F)cc4)C3C2)nnc1-c1cnccn1 (stereo in doubt; 17b)	–	–	> 2000	> 700	> 2000	> 2000	> 2000	> 2000	> 700	> 2000	Ki (D(2) dopamine receptor): 158 nM
Cn1c(SCCCN2CC3CCN(c4ccc(C(F)(F)F)cc4)C3C2)nnc1-c1ccc(=O)n(C)c1 (stereo in doubt; 57a)	–	–	–	152	–	–	–	–	23	–	permeability [13]: 3.9 ×10⁻⁶ cm/s
Cn1c(SCCCN2CC3CCN(c4ccc(C(F)(F)F)cc4)C3C2)nnc1-c1ccc(=O)n(C)c1 (stereo in doubt; 57b)	–	inactive	–	–	–	–	–	–	–	–	Activity [3]: inactive
Cc1ncoc1-c1nnc(SCCCN2CC3CCN(c4ccccc4)C3C2)n1C.Cl (configuration not stated)	> 2000	–	–	–	–	–	–	–	–	–	–
Cn1c(SCCCN2CC3CCN(c4ccc(C(F)(F)F)cc4)C3C2)nnc1-c1cc[nH]c(=O)c1 (stereo in doubt; 55b)	–	inactive	–	–	–	–	–	–	–	–	Selectivity ratio (Homo sapiens): > 250

Further lines, with some results ahead:

solubility [1] [µg/mL]	Activity [2]	IC50 (Cytochrome P450 2C19) [nM]	microsomal CLint at 0.5 µM (in vitro [9]) [µL/min/mg]	IC50 (Cytochrome P450 3A4 [10]) [nM]	IC50 (Cytochrome P450 2D6) [nM]	IC50 (Cytochrome P450 1A2) [nM]	IC50 (Cytochrome P450 3A4 [14]) [nM]	microsomal CLint at 0.5 µM (in vitro [15]) [µL/min/mg]	IC50 (Cytochrome P450 2C9) [nM]	SMILES	further results
300	–	–	–	–	–	–	–	–	–	Cc1ncoc1-c1nnc(SCCCN2CC3CCN(c4ccc(C(F)(F)F)cc4)C3C2)n1C.Cl (configuration not stated)	–
–	inactive	–	–	–	–	–	–	–	–	Cc1ncoc1-c1nnc(SCCCN2CC3CCN(c4ccc(C(F)(F)F)cc4F)C3C2)n1C (stereo in doubt; 8b)	–
–	–	> 5000	27	> 5000	> 5000	> 5000	> 5000	136	> 5000	Cc1ncoc1-c1nnc(SCCCN2CC3CCN(c4ccc(F)cc4)C3C2)n1C (stereo in doubt; 9a)	clearance [4]: 53 mL/min/kg; fraction unbound [5]: 0.14; Fa [6]: 22%; half-life [8]: 18 min; Ki (D(2) dopamine receptor): 126 nM; fraction unbound [12]: 0.095; Papp A→B ([13]; Caco-2, permeability): 17.5 ×10⁻⁶ cm/s; Vd [16]: 1.2 L/kg
